Changes are numbered by the printed parent chain. Read-outs that look alike come from different tables or passages of the source.
Tests used:
[1] = target: T1, RET(KD: 658-1114 G810R) (Homo sapiens, UniProt P07949, G810R); test: HiBiT-Degradation, RET G810R degradation assay (Nano-Glo HiBiT Lytic), 293T.165 cells; assay type: cell-based; conditions: for Emax / DC50: 6.0 hours
T1 construct: 658-1114; expressed in transfected cells; host or cells: 293T.165 (293T cells, generated in-house)
T1 sequence (P07949 658-1114 G810R): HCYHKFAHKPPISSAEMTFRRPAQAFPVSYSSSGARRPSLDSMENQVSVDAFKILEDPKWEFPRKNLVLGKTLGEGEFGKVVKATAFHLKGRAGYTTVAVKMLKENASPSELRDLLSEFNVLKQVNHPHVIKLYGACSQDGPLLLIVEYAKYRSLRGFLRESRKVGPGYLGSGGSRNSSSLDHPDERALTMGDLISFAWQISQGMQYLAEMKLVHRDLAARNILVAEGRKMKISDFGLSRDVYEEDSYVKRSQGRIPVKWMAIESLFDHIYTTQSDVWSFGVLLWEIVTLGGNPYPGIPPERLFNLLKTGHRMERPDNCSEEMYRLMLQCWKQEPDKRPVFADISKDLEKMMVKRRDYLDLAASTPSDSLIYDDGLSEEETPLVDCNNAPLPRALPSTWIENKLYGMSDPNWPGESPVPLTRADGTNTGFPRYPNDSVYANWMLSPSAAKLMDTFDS
Outline: (§1)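 6 h treatment, 293T.144 (WT) / 293T.165 (G810R) cells ectopically expressing HiBiT-fused RET KD; 11-pt half-log dilution, top 10 μM, n=2. Nano-Glo HiBiT lytic detection, luminescence. Output: DC50, Emax (% protein remaining).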

[2] = target: T2, RET (658-1114) (Homo sapiens, UniProt P07949); test: HiBiT-Degradation, RET wild-type degradation assay (Nano-Glo HiBiT Lytic), 293T.144 cells; assay type: cell-based; conditions: for Emax / DC50: 6.0 hours
T2 construct: 658-1114; expressed in transfected cells; host or cells: 293T.144 (293T cells, generated in-house)
T2 sequence (P07949 658-1114): T1 sequence (P07949 658-1114 G810R) with R153G
Outline: as §1

[3] = % remaining protein, read-out: 293T.165 RET(KD: 658-1114 G810R) 6.0 hours (Emax)
[4] = half-maximal degradation concentration, read-out: 293T.165 RET(KD: 658-1114 G810R) 6.0 hours (DC50)
[5] = % remaining protein, read-out: 293T.144 RET (658-1114) 6.0 hours (Emax)
[6] = half-maximal degradation concentration, read-out: 293T.144 RET (658-1114) 6.0 hours (DC50)
[7] = HiBiT-Degradation, read-out: 293T.165 RET(KD: 658-1114 G810R) 6.0 hours (DC50)
[8] = HiBiT-Degradation, read-out: 293T.144 RET (658-1114) 6.0 hours (DC50)
[9] = HiBiT-Degradation, read-out: 293T.144 RET (658-1114) 6.0 hours (Emax)

Compound	293T.165 RET(KD: 658-1114 G810R) 6.0 hours (IP) [nM] [1]	Emax [1, 3] [%]	DC50 [1, 4] [µM]	293T.144 RET (658-1114) 6.0 hours (IP) [nM] [2]	Emax [2, 5] [%]	DC50 [2, 6] [µM]	HiBiT-Degradation 293T.165 RET(KD: 658-1114 G810R) 6.0 hours (IP) [nM] ([1]; RET G810R)	DC50 ([1]; RET G810R, read-out: HiBiT-Degradation 293T.165 RET(KD: 658-1114 G810R) 6.0 hours (DC50)) [µM]	Emax ([1]; RET G810R, read-out: HiBiT-Degradation 293T.165 RET(KD: 658-1114 G810R) 6.0 hours (Emax)) [%]	HiBiT-Degradation 293T.144 RET (658-1114) 6.0 hours (IP) [nM] ([2]; RET wild-type)	DC50 ([2]; RET wild-type, read-out: HiBiT-Degradation 293T.144 RET (658-1114) 6.0 hours (DC50)) [µM]	Emax ([2]; RET wild-type, read-out: HiBiT-Degradation 293T.144 RET (658-1114) 6.0 hours (Emax)) [%]	293T.165 RET(KD: 658-1114 G810R) 6.0 hours (Emax) ([1]; HiBiT-Degradation)	293T.165 RET(KD: 658-1114 G810R) 6.0 hours (IP) [nM] ([1]; HiBiT-Degradation)	DC50 [1, 7] [µM]	293T.144 RET (658-1114) 6.0 hours (IP) [nM] ([2]; HiBiT-Degradation)	DC50 [2, 8] [µM]	Emax [2, 9] [%]
COc1ccc(CN2C3CC2CN(c2ccc(-c4nc(-c5cnn([C@H]6CC[C@H](N7CCN(c8cc(OC)c(NC9CCC(=O)NC9=O)cc8F)CC7)CC6)c5)cn5ncc(C#N)c45)cn2)C3)cn1 (relative stereo) [Compound 167, 6-[1-[4-[4-[4-[(2,6-dioxo-3-piperidyl)amino]-2-fluoro-5-methoxy-phenyl]piperazin-1-yl]cyclohexyl]pyrazol-4-yl]-4-[6-[6-[(6-methoxy-3-pyridyl)methyl]-3,6-diazabicyclo[3.1.1]heptan-3-yl]-3-pyridyl]pyrazolo[1,5-a]pyrazine-3-carbonitrile]	++++ (<50 nM = ++++)	< 30	< 0.05	++++ (<50 nM = ++++)	< 30	< 0.05	–	–	–	–	–	–	–	–	–	–	–	–
CCC1(C(=O)NC(C)C)CCN(c2ccc(-c3nc(-c4cnn(C5CCN(C(=O)CC6(O)CCN(c7ccc(N[C@@H]8CCC(=O)NC8=O)cc7F)CC6)CC5)c4)cn4ncc(C#N)c34)cn2)CC1 (single isomer, unassigned) [Compound 79]	–	< 30	< 0.05	–	–	–	++++ (< 50 nM = ++++)	< 0.05	< 30	++++ (< 50 nM = ++++)	< 0.05	< 30	–	–	–	–	–	–
CC(C)CC(=O)N1CCN(c2ccc(-c3nc(-c4cnn(C5CCN(C(=O)CC6CCN(c7ccc(NC8CCC(=O)NC8=O)cc7F)CC6)CC5)c4)cn4ncc(C#N)c34)cn2)CC1 (centres unmarked) [Compound 185, 6-(1-(1-(2-(1-(4-((2,6-dioxopiperidin-3-yl)amino)-2-fluorophenyl)piperidin-4-yl)acetyl)piperidin-4-yl)-1H-pyrazol-4-yl)-4-(6-(4-(3-methylbutanoyl)piperazin-1-yl)pyridin-3-yl)pyrazolo[1,5-a]pyrazine-3-carbonitrile]	++++ (<50 nM = ++++)	< 50	< 0.1	++++ (<50 nM = ++++)	< 30	< 0.05	–	–	–	–	–	–	–	–	–	–	–	–
CCC1(C(=O)NC2CCC2)CCN(c2ccc(-c3cc(-c4cnn(C5CCN(C(=O)CN6CCC(c7ccc(NC8CCC(=O)NC8=O)cc7F)CC6)CC5)c4)cn4ncc(C#N)c34)cn2)CC1 (centres unmarked) [Compound 8, 1-(5-(3-Cyano-6-(1-(1-(2-(4-(4-((2,6-dioxopiperidin-3-yl)amino)-2-fluorophenyl)piperidin-1-yl)acetyl)piperidin-4-yl)-1H-pyrazol-4-yl)pyrazolo[1,5-a]pyridin-4-yl)pyridin-2-yl)-N-cyclobutyl-4-ethylpiperidine-4-carboxamide]	–	< 30	< 0.05	–	–	–	–	–	–	–	–	–	++++ (< 30% = ++++)	++++ (< 50 nM = ++++)	< 0.05	++++ (< 50 nM = ++++)	< 0.05	< 30
CCC1(C(=O)NC(C)C)CCN(c2ccc(-c3nc(-c4cnn(C5CCC6(CC5)CN(C(=O)CC5(O)CCN(c7ccc(NC8CCC(=O)NC8=O)cc7F)CC5)C6)c4)cn4ncc(C#N)c34)cn2)CC1 (centres unmarked) [Compound 182, 1-(5-(3-Cyano-6-(1-(2-(2-(1-(4-((2,6-dioxopiperidin-3-yl)amino)-2-fluorophenyl)-4-hydroxypiperidin-4-yl)acetyl)-2-azaspiro[3.5]nonan-7-yl)-1H-pyrazol-4-yl)pyrazolo[1,5-a]pyrazin-4-yl)pyridin-2-yl)-4-ethyl-N-isopropylpiperidine-4-carboxamide]	++++ (<50 nM = ++++)	< 50	< 0.05	++++ (<50 nM = ++++)	< 30	< 0.05	–	–	–	–	–	–	–	–	–	–	–	–
CCC1(C(=O)NC(C)C)CCN(c2ccc(-c3nc(-c4cnn(C5CCN(C(=O)CN6CCC(c7ccc(NC8CCC(=O)NC8=O)cc7)CC6)CC5)c4)cn4ncc(C#N)c34)cn2)CC1 (centres unmarked) [Compound 31, 1-(5-(3-Cyano-6-(1-(1-(2-(4-(4-((2,6-dioxopiperidin-3-yl)amino)phenyl)piperidin-1-yl)acetyl)piperidin-4-yl)-1H-pyrazol-4-yl)pyrazolo[1,5-a]pyrazin-4-yl)pyridin-2-yl)-4-ethyl-N-isopropylpiperidine-4-carboxamide]	–	< 30	< 0.05	–	–	–	–	–	–	–	–	–	++++ (< 30% = ++++)	++++ (< 50 nM = ++++)	< 0.05	++++ (< 50 nM = ++++)	< 0.05	< 30
N#Cc1cnn2cc(-c3cnn(C4CCN(C(=O)CN5CCC(c6ccc(NC7CCC(=O)NC7=O)cc6F)CC5)CC4)c3)cc(-c3ccc(N4CCC(Nc5ccccc5)CC4)nc3)c12 (centres unmarked) [Compound 46, 4-[6-(4-anilino-1-piperidyl)-3-pyridyl]-6-[1-[1-[2-[4-[4-[(2,6-dioxo-3-piperidyl)amino]-2-fluoro-phenyl]-1-piperidyl]acetyl]-4-piperidyl]pyrazol-4-yl]pyrazolo[1,5-a]pyridine-3-carbonitrile]	–	< 50	< 0.1	–	–	–	–	–	–	–	–	–	+++ (<50% = +++)	++++ (< 50 nM = ++++)	< 0.1	++++ (< 50 nM = ++++)	< 0.05	< 30
CO[C@@H](C(=O)N1CCN(c2ccc(-c3nc(-c4cnn([C@H]5CC[C@@H](N6CCN(c7c(F)cc(NC8CCC(=O)NC8=O)cc7F)CC6)CC5)c4)cn4ncc(C#N)c34)cn2)CC1)c1ccccc1 (single isomer, unassigned) [Compound 201]	++++ (<50 nM = ++++)	< 30	< 0.05	++++ (<50 nM = ++++)	< 30	< 0.05	–	–	–	–	–	–	–	–	–	–	–	–
N#Cc1cnn2cc(-c3cnn([C@H]4CC[C@H](N5CCN(c6c(F)cc(NC7CCC(=O)NC7=O)cc6F)CC5)CC4)c3)nc(-c3ccc(N4CC5CC(C4)N5CC4CCC(F)(F)CC4)nc3)c12 (some centres unmarked) [Compound 214, 4-[6-[6-[(4,4-difluorocyclohexyl)methyl]-3,6-diazabicyclo[3.1.1]heptan-3-yl]-3-pyridyl]-6-[1-[4-[4-[4-[(2,6-dioxo-3-piperidyl)amino]-2,6-difluoro-phenyl]piperazin-1-yl]cyclohexyl]pyrazol-4-yl]pyrazolo[1,5-a]pyrazine-3-carbonitrile]	+++ (<100 nM = +++)	< 30	< 0.1	++++ (<50 nM = ++++)	< 30	< 0.05	–	–	–	–	–	–	–	–	–	–	–	–
